This note sets out measurements from patent publication US7491794B2, “Macrocyclic compounds as inhibitors of viral replication” (Intermune, Inc., priority 2003, dated 2009).

Where a name gives a salt, the structure may show the parent alone.

The target of one assay is T1, NS3-NS4A protease (Hepatitis C virus genotype 1a, UniProt P27958).
T1 construct: Recombinant E. coli or Baculovirus full-length NS3 was diluted to 3.33 μM with assay buffer; made in house; host or cells: E. coli or baculovirus (BV) system
Description: NS3-NS4A protease assay (NS3 inhibition assay, RETS1 substrate), Section B. Format: biochemical. The conditions noted are these: read-out: NS3-NS4A IC50. On the procedure:
NS3 complex formation with NS4A-2
Recombinant E. coli or Baculovirus full-length NS3 was diluted to 3.33 μM with assay buffer and the material transferred to an eppendorf tube and place in water bath in 4° C. refrigerator. The appropriate amount of NS4A-2 to 8.3 mM in assay buffer was added to equal the volume of NS3 in step 2.1.1 (conversion factor −3.8 mg/272 μL assay buffer). The material was transferred to an eppendorf tube and placed in a water bath in a 4° C. refrigerator.
After equilibration to 4° C., equal volumes of NS3 and NS4A-2 solutions were combined in an eppendorf tube, mixed gently with a manual pipettor, and the mixture incubated for 15 minutes in the 4° C. water bath. Final concentrations in the mixture were 1.67 μM NS3, 4.15 mM NS4A-2 (2485-fold molar excess NS4A-2).
After 15 minutes at 4° C., the NS3/NS4A-2 eppendorf tube was removed and placed in a room temperature water bath for 10 minutes. NS3/NS4A-2 was aliquoted at appropriate volumes and store at −80° C. (E. coli NS3 run at 2 nM in assay, aliquot at 25 μL. BV NS3 run at 3 nM in assay, aliquot at 30 μL.
Step 2.2.5. Sample compounds were dissolved to 10 mM in DMSO then diluted to 2.5 mM (1:4) in DMSO.
Step 2.2.6. The E. coli NS3/NS4A-2 was diluted to 4 nM NS3 (1:417.5 of 1.67 μM stock−18 μL 1.67 μM stock+7497 μL assay buffer).
The BV NS3/NS4A-2 was diluted to 6 nM NS3 (1:278.3 of 1.67 μM stock−24 μL 1.67 μM stock+6655 μL assay buffer).
Step 2.2.7. Using the manual multichannel pipettor, and being careful not to introduce bubbles into the plate, 50 μL assay buffer was added to wells A01-H01 of a black Costar 96-well polypropylene storage plate.
Step 2.2.8. Using the manual multichannel pipettor, and being careful not to introduce bubbles into the plate, 50 μL of diluted NS3/NS4A-2 from step 2.2.6 was added to wells A02-H12 of plate in step 2.2.7.
Step 2.2.9. Using the manual multichannel pipettor, and being careful not to introduce bubbles into the plate, 25 μL of the wells in drug dilution plate in step 2.2.5 were transferred to corresponding wells in assay plate in step 2.2.8. The tips on multichannel pipettor were changed for each row of compounds transferred.
Step 2.2.10. Using the manual multichannel pipettor, and being careful not to introduce bubbles into the plate, the wells from the assay plate in step 2.2.9 were mixed by aspirating and dispensing 35 μL of the 75 μL in each well five times. The tips on multichannel pipettor were changed for each row of wells mixed.
Step 2.2.11. The plate was covered with a polystyrene plate lid, and the plate from step 2.2.10 containing NS3 protease and sample compounds was pre-incubated 10 minutes at room temperature.
While the plate from step 2.2.11 was pre-incubating, the RETS1 substrate was diluted in a 15 mL polypropylene centrifuge tube. The RETS1 substrate was diluted to 8 μM (1:80.75 of 646 μM stock−65 μL 646 μM stock+5184 μL assay buffer).
After the plate in step 2.2.11 was done pre-incubating, and using the manual multichannel, 25 μL of substrate was added to all wells on the plate. The contents of the wells were quickly mixed, as in step 2.2.10, but mixing 65 μL of the 100 μL in the wells.
The plate was read in kinetic mode on the Molecular Devices SpectraMax Gemini XS plate reader. Reader settings: Read time: 30 minutes, Interval: 36 seconds, Reads: 51, Excitation λ: 335 nm, Emission λ: 495 nm, cutoff: 475 nm, Automix: off, Calibrate: once, PMT: high, Reads/well: 6, Vmax pts: 21 or 28/51 depending on length of linearity of reaction.
IC50s were determined using a four parameter curve fit equation, and converted to Ki's using the following Km's:
where Ki=IC50/(1+[S]/Km))

Assay [1] deals with HCV sub-genomic replicon, GS4.3. In words: Quantitation by ELISA of NPTII in the HCV sub-genomic replicon, GS4.3, Section B. It is filed as cell-based. The conditions noted are these: Hepatitis C virus; GS4.3 cells, 72 h incubation; read-out: Replicon EC50. The source says:
Quantitation by ELISA of the Selectable Marker Protein, Neomycin Phosphotransferase II (NPTII) in the HCV Sub-Genomic Replicon, GS4.3
The HCV sub-genomic replicon (1377/NS3-3′, accession No. AJ242652), stably maintained in HuH-7 hepatoma cells, was created by Lohmann et al. Science 285: 110-113 (1999). The replicon-containing cell culture, designated GS4.3, was obtained from Dr. Christoph Seeger of the Institute for Cancer Research, Fox Chase Cancer Center, Philadelphia, Pa.
GS4.3 cells were maintained at 37° C., 5% CO2, in DMEM (Gibco 11965-092) supplemented with L-glutamine 200 mM (100×) (Gibco25030-081), non-essential amino acids (NEAA)(Biowhittaker 13-114E), heat-inactivated (HI) Fetal Bovine Serum(FBS)(Hyclone SH3007.03) and 750 μg/ml geneticin (G418)(Gibco 10131-035). Cells were sub-divided 1:3 or 4 every 2-3 days.
24 hours prior to the assay, GS4.3 cells were collected, counted, and plated in 96-well plates (Costar 3585) at 7500 cells/well in 100 μl standard maintenance medium (above) and incubated in the conditions above. To initiate the assay, culture medium was removed, cells were washed once with PBS (Gibco 10010-023) and 90 μl Assay Medium (DMEM, L-glutamine, NEAA, 10% HI FBS, no G418) was added. Inhibitors were made as a 10× stock in Assay Medium, (3-fold dilutions from 10 μM to […] final concentration, final DMSO concentration 1%), 10 μl were added to duplicate wells, plates were rocked to mix, and incubated as above for 72 h.
An NPTII ELISA kit was obtained from AGDIA, Inc. (Compound direct ELISA test system for Neomycin Phosphotransferase II, PSP 73000/4800). Manufacturer's instructions were followed, with some modifications. 10×PEB-1 lysis buffer was made up to include 500 μM PMSF (Sigma P7626, 50 mM stock in isopropanol). After 72 h incubation, cells were washed once with PBS and 150 μl PEB-1 with PMSF was added per well. Plates were agitated vigorously for 15 minutes, room temperature, then frozen at −70° C. Plates were thawed, lysates were mixed thoroughly, and 100 μl were applied to an NPTII Elisa plate. A standard curve was made. Lysate from DMSO-treated control cells was pooled, serially diluted with PEB-1 with PMSF, and applied to duplicate wells of the ELISA plate, in a range of initial lysate amount of 150u1-2.5 ul. In addition, 100 μl buffer alone was applied in duplicate as a blank. Plates were sealed and gently agitated at room temperature for 2 h. Following capture incubation, the plates were washed 5×300 μl with PBS-T (0.5% Tween-20, PBS-T was supplied in the ELISA kit). For detection, a 1× dilution of enzyme conjugate diluent MRS-2 (5×) was made in PBS-T, into which 1:100 dilutions of enzyme conjugates A and B were added, as per instructions. Plates were resealed, and incubated with agitation, covered, room temperature, for 2 h. The washing was then repeated and 100 μl of room temperature TMB substrate was added. After approximately 30 minutes incubation (room temperature, agitation, covered), the reaction was stopped with 50 μl 3M sulfuric acid. Plates were read at 450 nm on a Molecular Devices Versamax plate reader.
Inhibitor effect was expressed as a percentage of DMSO-treated control signal, and inhibition curves were calculated using a 4-parameter equation: y=A+((B−A)/(1+((C/x)^D))), where C is half-maximal activity or EC50.

T1 sequence (P27958 1027-1657): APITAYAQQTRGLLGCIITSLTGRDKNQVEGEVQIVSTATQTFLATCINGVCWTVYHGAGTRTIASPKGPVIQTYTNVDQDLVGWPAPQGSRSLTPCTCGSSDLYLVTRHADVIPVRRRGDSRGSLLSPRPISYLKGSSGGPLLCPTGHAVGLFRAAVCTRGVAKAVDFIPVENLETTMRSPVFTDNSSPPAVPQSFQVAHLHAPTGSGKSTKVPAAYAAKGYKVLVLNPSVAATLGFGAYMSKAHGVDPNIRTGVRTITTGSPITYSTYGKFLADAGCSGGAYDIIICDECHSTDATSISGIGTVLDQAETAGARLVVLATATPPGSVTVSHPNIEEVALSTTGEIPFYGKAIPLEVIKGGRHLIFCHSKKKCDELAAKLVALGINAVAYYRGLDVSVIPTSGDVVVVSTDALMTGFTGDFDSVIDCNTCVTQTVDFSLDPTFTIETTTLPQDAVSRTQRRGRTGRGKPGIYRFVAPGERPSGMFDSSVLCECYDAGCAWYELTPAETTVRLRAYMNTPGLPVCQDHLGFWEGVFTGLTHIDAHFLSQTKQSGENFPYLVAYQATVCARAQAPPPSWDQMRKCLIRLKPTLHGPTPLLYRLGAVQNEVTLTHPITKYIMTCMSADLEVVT

For the compound `O=C(N[C@H]1CCCCCCCC2C[C@@]2(C(=O)NS(=O)(=O)C2CC2)NC(=O)[C@@H]2C[C@@H](OC(=O)N3CCc4ccccc4C3)CN2C1=O)OC1CCCC1` (stereo in doubt) [AR00324375, (1S,4R,6S,14S,18R)-3,4-Dihydro-1H-isoquinoline-2-carboxylic acid 14-cyclopentyloxycarbonylamino-4-cyclopropanesulfonylaminocarbonyl-2,15-dioxo-3,16-diaza-tricyclo[14.3.0.0^4,6]nonadec-18-yl ester], the IC50 at NS3-NS4A protease was less than 1000 nM. In addition, the EC50 in assay [1] was less than 1000 nM.

As to `CC(C)(C)OC(=O)N[C@H]1CCCCCCCC2C[C@@]2(C(=O)NS(=O)(=O)C2CC2)NC(=O)[C@@H]2C[C@@H](OC(=O)N3Cc4ccccc4C3)CN2C1=O` (stereo in doubt) [AR00333833, (1S,4R,6S,14S,18R)-1,3-Dihydro-isoindole-2-carboxylic acid 14-tert-butoxycarbonylamino-4-cyclopropanesulfonylaminocarbonyl-2,15-dioxo-3,16-diaza-tricyclo[14.3.0.0^4,6]nonadec-18-yl ester], the 50% inhibitory concentration (IC50) at NS3-NS4A protease is less than 100 nM. Besides, the EC50 in assay [1] was less than 100 nM.

Regarding `CC(C)(C)OC(=O)N[C@H]1CCCCC/C=C\[C@@H]2C[C@@]2(C(=O)O)NC(=O)[C@@H]2C[C@@H](OC(=O)N3CCc4ccccc4C3)CN2C1=O` [AR00220042, (1S,4R,6S,14S,18R)-14-tert-Butoxycarbonylamino-18-(3,4-dihydro-1H-isoquinoline-2-carbonyloxy)-2,15-dioxo-3,16-diaza-tricyclo[14.3.0.0^4,6]nonadec-7-ene-4-carboxylic acid], at NS3-NS4A protease, the half-maximal inhibitory concentration (IC50) was less than 1000 nM. For the same compound, in assay [1], the EC50 is less than 10000 nM.

As for `COc1ccc(S(=O)(=O)NC(=O)[C@@]23C[C@H]2/C=C\CCCCC[C@H](NC(=O)OC(C)(C)C)C(=O)N2C[C@H](OC(=O)N4Cc5ccccc5C4)C[C@H]2C(=O)N3)cc1C(=O)O` [AR00365425, (1S,4R,6S,14S,18R)-1,3-Dihydro-isoindole-2-carboxylic acid 14-tert-butoxycarbonylamino-4-(3-carboxy-4-methoxy-benzenesulfonylaminocarbonyl)-2,15-dioxo-3,16-diaza-tricyclo[14.3.0.0^4,6]nonadec-7-en-18-yl ester], at NS3-NS4A protease, the half-maximal inhibitory concentration (IC50) was less than 100 nM.

As for `CC(C)(C)OC(=O)N[C@H]1CCCCC/C=C\[C@@H]2C[C@@]2(C(=O)O)NC(=O)[C@@H]2C[C@@H](OC(=O)N3Cc4ccc(OCCN5CCOCC5)cc4C3)CN2C1=O` [AR00371946, (1S,4R,6S,14S,18R)-14-tert-Butoxycarbonylamino-18-[5-(2-morpholin-4-yl-ethoxy)-1,3-dihydro-isoindole-2-carbonyloxy]-2,15-dioxo-3,16-diaza-tricyclo[14.3.0.0^4,6]nonadec-7-ene-4-carboxylic acid], the half-maximal inhibitory concentration (IC50) at NS3-NS4A protease was less than 100 nM.

For the compound `CN(C)CCOc1ccc2c(c1)CN(C(=O)O[C@@H]1C[C@H]3C(=O)N[C@]4(C(=O)O)C[C@H]4/C=C\CCCCC[C@H](NC(=O)OC(C)(C)C)C(=O)N3C1)C2` [AR00371947, (1S,4R,6S,14S,18R)-14-tert-Butoxycarbonylamino-18-[5-(2-dimethylamino-ethoxy)-1,3-dihydro-isoindole-2-carbonyloxy]-2,15-dioxo-3,16-diaza-tricyclo[14.3.0.0^4,6]nonadec-7-ene-4-carboxylic acid], the half-inhibitory concentration (IC50) at NS3-NS4A protease is less than 1000 nM.

For `CC(C)NCCOc1ccc2c(c1)CN(C(=O)O[C@@H]1C[C@H]3C(=O)N[C@]4(C(=O)O)C[C@H]4/C=C\CCCCC[C@H](NC(=O)OC(C)(C)C)C(=O)N3C1)C2` [AR00371948, (1S,4R,6S,14S,18R)-14-tert-Butoxycarbonylamino-18-[5-(2-isopropylamino-ethoxy)-1,3-dihydro-isoindole-2-carbonyloxy]-2,15-dioxo-3,16-diaza-tricyclo[14.3.0.0^4,6]nonadec-7-ene-4-carboxylic acid], the half-inhibitory concentration (IC50) on NS3-NS4A protease is less than 100 nM.

For the compound `COCC1c2cccc(F)c2CCN1C(=O)O[C@@H]1C[C@H]2C(=O)N[C@]3(C(=O)NS(=O)(=O)C4CC4)C[C@H]3/C=C\CCCCC[C@H](N)C(=O)N2C1` (stereo partly drawn) [AR00424775, (1S,4R,6S,14S,18R)-5-Fluoro-1-methoxymethyl-3,4-dihydro-1H-isoquinoline-2-carboxylic acid 14-amino-4-cyclopropanesulfonylaminocarbonyl-2,15-dioxo-3,16-diaza-tricyclo[14.3.0.0^4,6]nonadec-7-en-18-yl ester, HCl salt], at NS3-NS4A protease, the IC50 is less than 100 nM.

With `N[C@H]1CCCCC/C=C\[C@@H]2C[C@@]2(C(=O)NS(=O)(=O)C2CC2)NC(=O)[C@@H]2C[C@@H](OC(=O)N3Cc4cccc(F)c4C3)CN2C1=O` [AR00424874, (1S,4R,6S,14S,18R)-4-Fluoro-1,3-dihydro-isoindole-2-carboxylic acid 14-amino-4-cyclopropanesulfonylaminocarbonyl-2,15-dioxo-3,16-diaza-tricyclo[14.3.0.0^4,6]nonadec-7-en-18-yl ester, HC1 salt], the IC50 at NS3-NS4A protease is less than 100 nM.

The term IC50 denotes the concentration that inhibits the measured activity by half. What is called EC50 is the concentration needed to bring the measured effect to its halfway point.
